{
  "source": "the supplement of paper PMC10307832",
  "test_in_all_cases": "relative viability (nuclei count vs DMSO), 5 days (fraction); higher = more cells survive",
  "key": {"[1]": {"compound": "C[C@]1(O)C[C@@H](c2nc(-c3ccc4ccc(-c5ccccc5)nc4c3)c3c(N)nccn32)C1 [Linsitinib] + Nc1ncn([C@H]2C[C@H](O)[C@@H](CO)O2)c(=O)n1 [Decitabine] (partner 2 µM)", "method_in_brief": "(§1)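 After 5 days of treatment, lung cancer cells in 1536-well plates were fixed and stained in a single step (final 0.05% Triton X-100, 1% formaldehyde, 1 ug/ml Hoechst) and their nuclei counted on 4× images. Treatment had been applied by pin tool the day after seeding as one drug alone or as a fixed anchor-drug dose with five library-drug doses (not always all listed) in √10 steps. Relative viability is the nuclei count of treated wells divided by that of vehicle wells, and values are medians of duplicate plates.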"}, "[2]": {"compound": "C[C@]1(O)C[C@@H](c2nc(-c3ccc4ccc(-c5ccccc5)nc4c3)c3c(N)nccn32)C1 [Linsitinib] + O=C(CCCCCCC(=O)Nc1ccccc1)NO [Vorinostat] (partner 1 µM)", "method_in_brief": "as §1"}, "[3]": {"compound": "Cc1ccc(C(=O)N(CCCN)[C@@H](c2nc3cc(Cl)ccc3c(=O)n2Cc2ccccc2)C(C)C)cc1 [Ispinesib] + CS(=O)(=O)CCNCc1ccc(-c2ccc3ncnc(Nc4ccc(OCc5cccc(F)c5)c(Cl)c4)c3c2)o1 [Lapatinib] (partner 2 µM)", "method_in_brief": "as §1"}, "[4]": {"compound": "Cc1ccc(C(=O)N(CCCN)[C@@H](c2nc3cc(Cl)ccc3c(=O)n2Cc2ccccc2)C(C)C)cc1 [Ispinesib] + Cc1nc(Nc2ncc(C(=O)Nc3c(C)cccc3Cl)s2)cc(N2CCN(CCO)CC2)n1 [Dasatinib] (partner 0.075 µM)", "method_in_brief": "as §1"}},
  "data": [
    {"cell line": "UMC-11", "values": [
      {"measurement": "relative viability", "setting": "[1]; first compound 0.01 µM", "value": 0.627},
      {"measurement": "relative viability", "setting": "[1]; first compound 0.03162 µM", "value": 0.458},
      {"measurement": "relative viability", "setting": "[1]; first compound 0.1 µM", "value": 0.642},
      {"measurement": "relative viability", "setting": "[1]; first compound 0.3162 µM", "value": 0.423},
      {"measurement": "relative viability", "setting": "[1]; first compound 1 µM", "value": 0.527},
      {"measurement": "relative viability", "setting": "[2]; first compound 0.01 µM", "value": 0.369},
      {"measurement": "relative viability", "setting": "[2]; first compound 0.03162 µM", "value": 0.389},
      {"measurement": "relative viability", "setting": "[2]; first compound 0.1 µM", "value": 0.357},
      {"measurement": "relative viability", "setting": "[2]; first compound 0.3162 µM", "value": 0.217},
      {"measurement": "relative viability", "setting": "[2]; first compound 1 µM", "value": 0.386},
      {"measurement": "relative viability", "setting": "[3]; first compound 0.001 µM", "value": 1.08},
      {"measurement": "relative viability", "setting": "[3]; first compound 0.003162 µM", "value": 0.751},
      {"measurement": "relative viability", "setting": "[3]; first compound 0.01 µM", "value": 0.723},
      {"measurement": "relative viability", "setting": "[3]; first compound 0.03162 µM", "value": 0.294},
      {"measurement": "relative viability", "setting": "[3]; first compound 0.1 µM", "value": 0.216},
      {"measurement": "relative viability", "setting": "[4]; first compound 0.001 µM", "value": 0.542},
      {"measurement": "relative viability", "setting": "[4]; first compound 0.003162 µM", "value": 0.544},
      {"measurement": "relative viability", "setting": "[4]; first compound 0.01 µM", "value": 0.317},
      {"measurement": "relative viability", "setting": "[4]; first compound 0.03162 µM", "value": 0.185},
      {"measurement": "relative viability", "setting": "[4]; first compound 0.1 µM", "value": 0.233}
    ]}
  ]
}
